Test [1] addresses T1, Plasma-derived (pd-) human Factor VIII (Homo sapiens, UniProt P00451).
T1 construct: from tissue; host or cells: human blood plasma (FVIII concentrate)
Description: Binding of 125I-labeled pd-FVIII to peptide-coated Toyopearl resin (micro-beads assay). The settings on record: peptide immobilized on Toyopearl AF-Epoxy-650M resin; 125I-pd-FVIII, 2 hours room temperature; percent of maximal achievable binding (anti-FVIII Mab 8860-coated resin); mean ± SD of four determinations. As to the method:
Peptides S1 to S84 were immobilized on the Toyopearl AF-Epoxy-650M resin (Tosoh Biosep) as described by Jungbauer et al. For immobilization, 2.5 mg of each peptide was dissolved in 0.25 mL of the immobilization buffer (0.2 M sodium bicarbonate, pH 10.3), and 0.036 g of the dry resin powder (corresponding to 0.125 mL of swollen resin) was added, followed by incubation of the mixture with gentle rotation for 48 hours. Upon incubation for 48 hours the resin was washed once with immobilization buffer, once with 1 M NaCl and then 3 times with binding buffer, and binding of ^125I-labeled pd-FVIII to the peptide-coated and control resin was tested. The coupling density of each peptide in each of the reported experiments was as mentioned in Table 1. The control 0.25 mL portion of the resin was similarly treated in parallel experiment in the absence of peptide and was subsequently used as a control (designated as Background) in ^125I-pd-FVIII binding experiments. ^125I-pd-FVIII Bound/Background ratios were calculated as the amount of ^125I-pd-FVIII, bound to an immobilized peptide, divided by that bound to uncoated control resin, prepared as described above. This ratio represents a Signal/Noise ratio for the micro-beads assay, since ^125I-pd-FVIII bound to peptide represents the signal value and ^125I-pd-FVIII bound to peptide-uncoated resin represents the background (noise) value.
Plasma-derived (pd-) human Factor VIII (FVIII) was purified from concentrate by immunoaffinity chromatography on an anti-FVIII monoclonal antibody column followed by subsequent concentration of pd-FVIII by ion-exchange chromatography using Resource Q HR5/5 column.
The resin with immobilized peptides was washed in the binding buffer (0.01 M Hepes, 0.1 M NaCl, 5 mM CaCl2, 0.01% Tween-80). Subsequently, the resin was diluted in the binding buffer as 1:7 slurry and aliquoted into Eppendorf tubes (40 μL per tube). ^125I-pd-FVIII (100000 cpm in 10 μL) was added to the tubes and the volume of the mixture was adjusted to 100 μL by adding 50 μL of the binding buffer containing 4% BSA to give a 2% final concentration of BSA. After 2 hours of incubation at room temperature on a rotator, the samples were washed 4 times in the binding. After each wash the tubes were centrifuged at 5000 rpm for 1 min in an Eppendorf microcentrifuge, supernatant was discarded, and the resin was re-suspended in the washing buffer, followed by centrifugation under the same conditions. After four washes the tubes with pellet without supernatant were counted for radioactivity. The resin without peptide was processed similarly to account for non-specific pd-FVIII binding to tubes and resin itself, and the radioactivity in this control tube was considered as a background value. Since ^125I-pd-FVIII contains the some fraction damaged during radiolabeling, binding was calculated as a percent of maximal achievable binding, determined in separate experiment with anti-FVIII Mab 8860-coated resin.
All the measurements were performed in duplicates. Each experiment was performed using two independently prepared immobilized peptide samples. The data presented in each table are the mean values of the four determinations: duplicate determination in the two assays performed with beads on which peptides were independently immobilized on the different days. The value of standard deviation of the above quadruplicate determinations (duplicate determinations in two independent experiments) were typically less than 10% of the measured values of ^125I-pd-FVIII binding to peptides.

In a further test the target is T2, ReFacto (Homo sapiens, UniProt P00451, DEL763-1656).
T2 construct: purchased Wyeth-Ayerst Pharmacia and Upjohn; host or cells: CHO cells
T2 sequence (P00451 with tags, fused parts or gaps DEL763-1656 limits assumed): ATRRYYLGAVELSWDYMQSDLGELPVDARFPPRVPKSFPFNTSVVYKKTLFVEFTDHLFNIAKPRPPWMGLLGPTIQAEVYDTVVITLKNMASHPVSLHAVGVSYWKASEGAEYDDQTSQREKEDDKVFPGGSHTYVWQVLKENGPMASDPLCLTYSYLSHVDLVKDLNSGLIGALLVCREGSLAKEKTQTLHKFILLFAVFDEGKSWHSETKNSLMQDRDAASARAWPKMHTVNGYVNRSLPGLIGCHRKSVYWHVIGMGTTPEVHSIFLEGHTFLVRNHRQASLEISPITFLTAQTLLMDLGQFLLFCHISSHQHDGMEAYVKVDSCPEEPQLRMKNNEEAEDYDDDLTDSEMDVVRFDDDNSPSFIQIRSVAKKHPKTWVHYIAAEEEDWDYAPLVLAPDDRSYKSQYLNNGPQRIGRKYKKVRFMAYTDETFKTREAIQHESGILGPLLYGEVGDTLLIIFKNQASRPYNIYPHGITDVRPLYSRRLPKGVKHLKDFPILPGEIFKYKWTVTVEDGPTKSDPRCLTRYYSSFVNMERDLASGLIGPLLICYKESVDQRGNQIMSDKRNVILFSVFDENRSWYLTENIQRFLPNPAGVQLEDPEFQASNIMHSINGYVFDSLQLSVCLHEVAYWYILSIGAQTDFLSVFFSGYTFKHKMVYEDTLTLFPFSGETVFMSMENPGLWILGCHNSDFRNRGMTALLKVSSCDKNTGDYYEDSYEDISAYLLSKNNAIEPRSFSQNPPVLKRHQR
T2 sequence (P00451 1668-2351 limits assumed): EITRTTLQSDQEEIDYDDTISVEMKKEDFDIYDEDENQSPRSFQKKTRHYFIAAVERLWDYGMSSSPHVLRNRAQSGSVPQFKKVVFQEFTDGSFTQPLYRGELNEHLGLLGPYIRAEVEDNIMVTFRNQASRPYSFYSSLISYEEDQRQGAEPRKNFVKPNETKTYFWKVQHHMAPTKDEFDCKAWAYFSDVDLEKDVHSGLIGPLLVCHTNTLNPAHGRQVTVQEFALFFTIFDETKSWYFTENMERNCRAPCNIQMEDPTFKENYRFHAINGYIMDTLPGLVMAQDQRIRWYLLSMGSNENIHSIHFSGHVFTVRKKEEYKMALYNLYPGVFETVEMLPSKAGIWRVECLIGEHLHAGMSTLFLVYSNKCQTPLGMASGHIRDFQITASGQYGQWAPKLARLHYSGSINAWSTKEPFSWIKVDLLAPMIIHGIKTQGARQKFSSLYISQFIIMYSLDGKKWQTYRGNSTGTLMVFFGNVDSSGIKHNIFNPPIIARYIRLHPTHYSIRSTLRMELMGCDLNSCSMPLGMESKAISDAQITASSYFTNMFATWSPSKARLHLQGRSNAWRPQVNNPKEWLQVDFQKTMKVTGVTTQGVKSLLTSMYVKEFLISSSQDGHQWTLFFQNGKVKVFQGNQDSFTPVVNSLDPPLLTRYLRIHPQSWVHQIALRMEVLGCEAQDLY
The test is described as follows: Binding of ReFacto to peptide-coated resin. The following applies: peptide immobilized on resin; Table 1.

Where no end group is shown, it is not given here. [ ]: non-standard residue; d: D form. Bpa = N[C@@H](Cc1ccc(C(=O)c2ccccc2)cc1)C(=O)O; 2Nal = N[C@@H](Cc1ccc2ccccc2c1)C(=O)O; Abu = CC[C@H](N)C(=O)O

T1 sequence (P00451 20-1667 limits assumed, one chain of several): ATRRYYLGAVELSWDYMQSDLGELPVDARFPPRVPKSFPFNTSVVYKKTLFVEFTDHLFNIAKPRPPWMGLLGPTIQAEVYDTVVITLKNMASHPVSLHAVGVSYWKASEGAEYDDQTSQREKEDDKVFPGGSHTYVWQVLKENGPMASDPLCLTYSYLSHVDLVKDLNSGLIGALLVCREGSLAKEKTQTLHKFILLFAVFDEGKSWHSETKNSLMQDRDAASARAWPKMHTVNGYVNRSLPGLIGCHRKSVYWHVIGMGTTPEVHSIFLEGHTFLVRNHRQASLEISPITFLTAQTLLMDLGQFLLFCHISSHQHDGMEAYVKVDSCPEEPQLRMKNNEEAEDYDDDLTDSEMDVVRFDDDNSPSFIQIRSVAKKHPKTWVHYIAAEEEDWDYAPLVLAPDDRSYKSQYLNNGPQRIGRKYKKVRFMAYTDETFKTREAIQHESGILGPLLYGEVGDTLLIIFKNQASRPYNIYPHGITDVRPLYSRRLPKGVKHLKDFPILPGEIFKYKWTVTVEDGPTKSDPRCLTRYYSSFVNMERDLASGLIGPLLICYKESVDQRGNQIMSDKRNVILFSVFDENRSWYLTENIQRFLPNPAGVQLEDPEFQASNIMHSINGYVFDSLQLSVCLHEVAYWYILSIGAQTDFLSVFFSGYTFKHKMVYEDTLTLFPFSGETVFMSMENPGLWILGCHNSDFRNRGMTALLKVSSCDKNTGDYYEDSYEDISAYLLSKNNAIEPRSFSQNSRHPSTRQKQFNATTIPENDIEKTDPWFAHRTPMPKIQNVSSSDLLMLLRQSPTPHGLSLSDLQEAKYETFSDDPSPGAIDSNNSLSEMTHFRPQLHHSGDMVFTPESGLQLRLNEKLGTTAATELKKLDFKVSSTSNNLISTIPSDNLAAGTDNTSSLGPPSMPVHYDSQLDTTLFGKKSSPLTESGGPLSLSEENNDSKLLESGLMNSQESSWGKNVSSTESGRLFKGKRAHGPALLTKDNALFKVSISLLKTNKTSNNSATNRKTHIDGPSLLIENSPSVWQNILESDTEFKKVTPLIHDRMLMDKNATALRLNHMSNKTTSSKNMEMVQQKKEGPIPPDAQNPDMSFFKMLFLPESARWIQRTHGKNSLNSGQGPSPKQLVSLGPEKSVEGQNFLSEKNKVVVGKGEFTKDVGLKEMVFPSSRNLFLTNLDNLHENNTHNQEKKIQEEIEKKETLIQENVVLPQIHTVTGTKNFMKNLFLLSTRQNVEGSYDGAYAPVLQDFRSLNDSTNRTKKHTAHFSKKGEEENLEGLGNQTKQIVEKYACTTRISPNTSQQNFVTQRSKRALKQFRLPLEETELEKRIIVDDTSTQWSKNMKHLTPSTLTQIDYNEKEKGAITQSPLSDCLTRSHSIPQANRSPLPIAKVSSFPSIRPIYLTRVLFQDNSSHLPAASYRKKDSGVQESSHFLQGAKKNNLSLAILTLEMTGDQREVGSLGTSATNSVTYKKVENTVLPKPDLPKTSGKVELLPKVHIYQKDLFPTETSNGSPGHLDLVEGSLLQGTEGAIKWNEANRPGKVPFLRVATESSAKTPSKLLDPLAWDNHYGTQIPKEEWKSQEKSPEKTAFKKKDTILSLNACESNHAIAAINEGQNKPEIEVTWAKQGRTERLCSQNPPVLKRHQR

As to T-W-E-Y-C [S46], the “% Binding pdFVIII” value in test [1] is recorded as 37.0 ± 2.1%. The “% Binding ReFacto” value on ReFacto is 25.1 ± 1.9%.
Taken in the same sequence, the figures for Y-H-T-W-D-Y-C (YHTWDYC) [S52] were 47.5 ± 3.3% and 51.2 ± 3.4%.
Regarding YHSWE[Bpa]C [S38], in test [1], the “% Binding pdFVIII” value was 52.3 ± 4.1%. Further, the “% Binding ReFacto” value on ReFacto worked out at 59.2 ± 4.8%.
With E-S-W-E-Y-C (ESWEYC) [S44], the “% Binding pdFVIII” value in test [1] was 38.0 ± 2.4%. Besides, the “% Binding ReFacto” value with ReFacto stood at 35.1 ± 2.4%.
Regarding C-S-W-E-Y [S20], the “% Binding pdFVIII” value in test [1] worked out at 48.6 ± 3.3%. The “% Binding ReFacto” value at ReFacto amounted to 45.3 ± 3.1%.
On to Y-H-S-W-E-Bip(4,4′)-C [S55], for which the “% Binding pdFVIII” value in test [1] is recorded as 51.5 ± 2.9%. In addition, the “% Binding ReFacto” value on ReFacto was 36.2 ± 2.1%.
For the substance Y-H-T-W-E-Y-C (YHTWEYC) [S47], the “% Binding pdFVIII” value in test [1] is on record as 47.5 ± 2.9%. Moreover, the “% Binding ReFacto” value in the test with ReFacto turned out to be 38.9 ± 2.8%.
As for S-W-D-Y-C [S43], in test [1], the “% Binding pdFVIII” value worked out at 48.2 ± 2.8%. Also, the “% Binding ReFacto” value on ReFacto is on record as 35.6 ± 2.6%.
The matching figures for S-W-E-Phg-C [S53]: 38.1 ± 2.7% and 42.5 ± 2.8%.
The matching figures for Abu-W-E-Y-C [S50]: 35.3 ± 2.4% and 36.4 ± 2.4%.
Regarding YF[Abu]WEYC [S49], the “% Binding pdFVIII” value in test [1] is recorded as 64.5 ± 4.0%. Further, the “% Binding ReFacto” value at ReFacto is 54.4 ± 3.8%.
Ac-E-S-W-E-Y-C (Ac-ESWEYC) [S45]: the “% Binding pdFVIII” value in test [1] was 36.4 ± 2.6%. Also, in the test with ReFacto, the “% Binding ReFacto” value is given as 38.4 ± 2.6%.
Take YHS[Bpa]E[Bpa]C [S51]: the “% Binding pdFVIII” value in test [1] turned out to be 63.4 ± 3.8%. Moreover, the “% Binding ReFacto” value on ReFacto is given as 49.3 ± 3.5%.
Consider YHS[2Nal]EYC [S42], for which the “% Binding pdFVIII” value in test [1] was found to be 60.3 ± 2.2%. At ReFacto, the “% Binding ReFacto” value came to 47.8 ± 2.1%.
For the substance YF[Abu]WEYC [S36], the “% Binding pdFVIII” value in test [1] came out at 62.0 ± 4.2%. At ReFacto, the “% Binding ReFacto” value came out at 53.8 ± 5.0%.
In the case of YHSWE[2Nal]C [S56], the “% Binding pdFVIII” value in test [1] was 51.5 ± 3.4%. The “% Binding ReFacto” value on ReFacto turned out to be 51.5 ± 3.4%.
Consider YH[Abu]WEYC [S54], for which the “% Binding pdFVIII” value in test [1] was 32.3 ± 2.6%. Moreover, the “% Binding ReFacto” value at ReFacto is recorded as 44.4 ± 2.8%.
On to Y-H-S-W-D-Y-C (YHSWDYC) [S48], for which the “% Binding pdFVIII” value in test [1] stood at 52.0 ± 3.1%. For the same substance, the “% Binding ReFacto” value in the test with ReFacto worked out at 40.2 ± 2.9%.

Source of the values: patent US20100099113A1, “MINIMIZED SMALL PEPTIDES WITH HIGH AFFINITY FOR FACTOR VIII AND FACTOR VIII-LIKE PROTEINS” (Technische Universitat Muenchen, priority 2006, published 2010).
